Measured values from ChEMBL document CHEMBL1909046, “DrugMatrix in vitro pharmacology data”.

Assays:
[1] = target: Acetylcholinesterase (Homo sapiens, UniProt P22303); assay: DRUGMATRIX: Acetylcholinesterase enzyme inhibition (substrate: acetylthiocholine); type: cell-based, HEK293; details: hek293; Not Active = under 50% inhibition at 10 µM
[2] = target: Voltage-gated inwardly rectifying potassium channel KCNH2 (Homo sapiens, UniProt Q12809); details: hek293; note: in other assays of this panel Not Active means under 50% inhibition at 10 µM
Voltage-gated inwardly rectifying potassium channel KCNH2, sequence (Q12809 whole entry): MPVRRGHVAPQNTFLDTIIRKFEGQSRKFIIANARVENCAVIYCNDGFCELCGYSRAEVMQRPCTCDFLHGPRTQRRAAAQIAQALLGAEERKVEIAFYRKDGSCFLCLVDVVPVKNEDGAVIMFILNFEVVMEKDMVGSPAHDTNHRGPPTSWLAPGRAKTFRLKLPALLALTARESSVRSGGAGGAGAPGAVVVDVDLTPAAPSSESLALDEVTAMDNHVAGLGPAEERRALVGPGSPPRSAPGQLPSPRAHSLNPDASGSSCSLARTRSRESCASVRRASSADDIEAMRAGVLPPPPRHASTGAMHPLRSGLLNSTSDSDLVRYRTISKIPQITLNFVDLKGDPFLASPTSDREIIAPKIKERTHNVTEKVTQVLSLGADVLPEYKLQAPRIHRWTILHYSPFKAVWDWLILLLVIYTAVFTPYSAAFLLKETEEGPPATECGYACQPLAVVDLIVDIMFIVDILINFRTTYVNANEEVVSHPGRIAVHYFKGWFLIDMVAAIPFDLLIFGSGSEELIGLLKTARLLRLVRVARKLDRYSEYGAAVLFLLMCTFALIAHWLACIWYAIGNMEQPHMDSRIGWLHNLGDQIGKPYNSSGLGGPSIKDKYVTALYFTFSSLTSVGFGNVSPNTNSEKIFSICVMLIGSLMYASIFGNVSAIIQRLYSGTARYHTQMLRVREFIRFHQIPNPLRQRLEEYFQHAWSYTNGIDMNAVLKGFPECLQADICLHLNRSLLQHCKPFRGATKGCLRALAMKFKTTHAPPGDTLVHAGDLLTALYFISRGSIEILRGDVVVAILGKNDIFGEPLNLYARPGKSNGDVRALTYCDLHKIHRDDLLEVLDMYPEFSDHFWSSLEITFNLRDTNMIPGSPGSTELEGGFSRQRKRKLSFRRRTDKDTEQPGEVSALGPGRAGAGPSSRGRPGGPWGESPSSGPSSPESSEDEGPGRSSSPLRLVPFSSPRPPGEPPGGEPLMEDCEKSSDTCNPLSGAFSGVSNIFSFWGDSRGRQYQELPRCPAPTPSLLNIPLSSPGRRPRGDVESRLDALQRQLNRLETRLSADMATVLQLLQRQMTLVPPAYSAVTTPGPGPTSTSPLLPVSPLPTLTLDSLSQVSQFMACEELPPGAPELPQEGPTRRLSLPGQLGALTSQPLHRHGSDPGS

[3] = target: T1, C-X-C chemokine receptor type 2 (Homo sapiens, UniProt P25025); type: cell membranes, Membrane; details: cho-k1; note: in other assays of this panel Not Active means under 50% inhibition at 10 µM
T1 sequence (P25025 whole entry): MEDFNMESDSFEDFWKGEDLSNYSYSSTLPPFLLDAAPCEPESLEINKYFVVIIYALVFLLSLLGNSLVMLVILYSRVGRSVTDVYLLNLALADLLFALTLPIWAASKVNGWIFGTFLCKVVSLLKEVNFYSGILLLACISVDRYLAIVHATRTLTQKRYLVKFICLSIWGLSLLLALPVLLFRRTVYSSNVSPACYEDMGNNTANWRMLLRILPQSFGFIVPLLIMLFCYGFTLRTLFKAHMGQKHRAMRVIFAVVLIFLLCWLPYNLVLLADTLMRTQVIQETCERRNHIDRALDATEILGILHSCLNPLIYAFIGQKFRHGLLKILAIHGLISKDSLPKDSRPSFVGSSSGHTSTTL

[4] = target: T2, Amine oxidase [flavin-containing] A (Homo sapiens, UniProt P21397); assay: DRUGMATRIX: Monoamine Oxidase MAO-A enzyme inhibition (substrate: Kynuramine); design: species or system BTI-TN-5B1-4; details: bti-tn-5b1-4; Not Active = under 50% inhibition at 10 µM
T2 sequence (P21397 whole entry): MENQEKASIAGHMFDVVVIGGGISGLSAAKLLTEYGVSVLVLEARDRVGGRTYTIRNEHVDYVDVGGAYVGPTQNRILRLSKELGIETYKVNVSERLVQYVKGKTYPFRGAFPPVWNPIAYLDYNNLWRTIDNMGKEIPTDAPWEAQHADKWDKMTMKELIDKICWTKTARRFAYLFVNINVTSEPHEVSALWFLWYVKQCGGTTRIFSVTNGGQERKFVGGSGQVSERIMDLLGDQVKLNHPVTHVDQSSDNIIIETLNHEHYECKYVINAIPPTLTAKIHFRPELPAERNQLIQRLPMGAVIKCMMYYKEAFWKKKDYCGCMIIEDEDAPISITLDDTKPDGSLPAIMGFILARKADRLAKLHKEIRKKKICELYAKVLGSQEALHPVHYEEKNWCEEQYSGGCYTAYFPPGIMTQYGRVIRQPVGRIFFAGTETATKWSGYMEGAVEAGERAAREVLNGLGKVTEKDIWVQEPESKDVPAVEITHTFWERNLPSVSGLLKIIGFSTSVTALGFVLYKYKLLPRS

[5] = target: T3, Adenosine receptor A1 (Homo sapiens, UniProt P30542); type: cell membranes, CHO, Membrane; details: cho;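 note: radioligand binding assay at the adenosine A1 receptor, with DPCPX serving as the labelled ligand; in other assays of this panel Not Active means under 50% inhibition at 10 µM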
T3 sequence (P30542 whole entry): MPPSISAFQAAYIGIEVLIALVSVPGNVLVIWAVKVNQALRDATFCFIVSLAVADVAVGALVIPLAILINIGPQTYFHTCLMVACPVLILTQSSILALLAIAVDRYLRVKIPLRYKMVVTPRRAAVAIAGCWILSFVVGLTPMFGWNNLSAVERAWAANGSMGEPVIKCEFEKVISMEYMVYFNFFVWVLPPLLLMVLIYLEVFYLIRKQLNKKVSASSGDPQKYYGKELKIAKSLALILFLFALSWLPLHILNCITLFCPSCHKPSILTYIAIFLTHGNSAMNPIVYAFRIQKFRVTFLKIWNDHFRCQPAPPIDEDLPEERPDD

[6] = target: T4, Muscarinic acetylcholine receptor M4 (Homo sapiens, UniProt P08173); type: cell membranes, CHO-K1, Membrane; details: cho-k1; note: in other assays of this panel Not Active means under 50% inhibition at 10 µM
T4 sequence (P08173 whole entry): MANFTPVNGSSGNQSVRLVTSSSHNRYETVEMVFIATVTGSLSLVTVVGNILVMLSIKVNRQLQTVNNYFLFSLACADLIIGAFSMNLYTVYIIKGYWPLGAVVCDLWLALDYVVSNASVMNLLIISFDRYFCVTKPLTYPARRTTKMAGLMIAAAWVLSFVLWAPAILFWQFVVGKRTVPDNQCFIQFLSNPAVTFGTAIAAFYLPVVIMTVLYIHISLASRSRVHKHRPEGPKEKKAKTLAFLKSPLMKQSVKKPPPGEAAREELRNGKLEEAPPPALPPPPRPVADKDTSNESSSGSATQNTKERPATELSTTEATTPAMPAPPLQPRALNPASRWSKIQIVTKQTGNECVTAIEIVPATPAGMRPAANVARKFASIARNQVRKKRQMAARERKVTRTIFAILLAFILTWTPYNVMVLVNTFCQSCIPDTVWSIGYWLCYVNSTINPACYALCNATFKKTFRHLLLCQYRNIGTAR

[7] = target: Insulin receptor (Rattus norvegicus, UniProt P15127); type: cell membranes, Wistar, Liver, Membrane; note: in other assays of this panel Not Active means under 50% inhibition at 10 µM
Insulin receptor, sequence (P15127 27-759 limits assumed): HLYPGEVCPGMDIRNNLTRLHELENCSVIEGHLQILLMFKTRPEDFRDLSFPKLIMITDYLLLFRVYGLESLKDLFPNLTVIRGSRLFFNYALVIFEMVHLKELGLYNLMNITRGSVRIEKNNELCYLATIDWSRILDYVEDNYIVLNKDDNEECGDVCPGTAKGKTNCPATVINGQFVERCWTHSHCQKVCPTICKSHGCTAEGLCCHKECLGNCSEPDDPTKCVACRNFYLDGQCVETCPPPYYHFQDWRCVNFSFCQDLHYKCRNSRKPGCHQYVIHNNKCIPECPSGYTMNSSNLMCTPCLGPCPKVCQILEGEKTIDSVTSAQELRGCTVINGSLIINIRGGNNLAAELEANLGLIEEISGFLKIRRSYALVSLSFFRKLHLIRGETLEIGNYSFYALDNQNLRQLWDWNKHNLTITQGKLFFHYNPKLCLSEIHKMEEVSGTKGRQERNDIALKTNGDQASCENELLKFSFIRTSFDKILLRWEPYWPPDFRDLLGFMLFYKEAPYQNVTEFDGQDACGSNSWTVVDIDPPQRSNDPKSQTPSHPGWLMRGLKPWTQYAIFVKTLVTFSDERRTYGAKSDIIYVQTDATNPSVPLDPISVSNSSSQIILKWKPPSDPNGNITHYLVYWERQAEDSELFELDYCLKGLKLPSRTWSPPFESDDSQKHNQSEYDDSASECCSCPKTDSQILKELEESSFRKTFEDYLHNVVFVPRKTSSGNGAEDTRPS
Insulin receptor, sequence (P15127 764-1383 limits assumed): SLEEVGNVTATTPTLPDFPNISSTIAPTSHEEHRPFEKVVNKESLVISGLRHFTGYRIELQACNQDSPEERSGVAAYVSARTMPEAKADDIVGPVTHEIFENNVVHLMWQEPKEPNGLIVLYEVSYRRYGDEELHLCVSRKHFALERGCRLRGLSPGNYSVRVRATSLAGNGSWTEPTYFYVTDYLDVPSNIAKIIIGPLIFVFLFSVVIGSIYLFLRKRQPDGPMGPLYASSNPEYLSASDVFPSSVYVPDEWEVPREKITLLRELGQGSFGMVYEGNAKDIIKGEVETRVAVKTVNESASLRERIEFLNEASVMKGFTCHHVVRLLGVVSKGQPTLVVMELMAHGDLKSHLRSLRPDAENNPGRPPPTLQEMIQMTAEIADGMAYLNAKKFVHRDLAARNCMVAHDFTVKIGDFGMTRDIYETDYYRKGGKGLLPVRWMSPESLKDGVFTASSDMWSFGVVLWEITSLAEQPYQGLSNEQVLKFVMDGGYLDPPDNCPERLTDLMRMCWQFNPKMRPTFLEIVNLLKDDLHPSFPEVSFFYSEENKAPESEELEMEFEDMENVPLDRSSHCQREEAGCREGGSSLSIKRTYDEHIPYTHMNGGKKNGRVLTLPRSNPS

Acetylcholinesterase, sequence (P22303 whole entry): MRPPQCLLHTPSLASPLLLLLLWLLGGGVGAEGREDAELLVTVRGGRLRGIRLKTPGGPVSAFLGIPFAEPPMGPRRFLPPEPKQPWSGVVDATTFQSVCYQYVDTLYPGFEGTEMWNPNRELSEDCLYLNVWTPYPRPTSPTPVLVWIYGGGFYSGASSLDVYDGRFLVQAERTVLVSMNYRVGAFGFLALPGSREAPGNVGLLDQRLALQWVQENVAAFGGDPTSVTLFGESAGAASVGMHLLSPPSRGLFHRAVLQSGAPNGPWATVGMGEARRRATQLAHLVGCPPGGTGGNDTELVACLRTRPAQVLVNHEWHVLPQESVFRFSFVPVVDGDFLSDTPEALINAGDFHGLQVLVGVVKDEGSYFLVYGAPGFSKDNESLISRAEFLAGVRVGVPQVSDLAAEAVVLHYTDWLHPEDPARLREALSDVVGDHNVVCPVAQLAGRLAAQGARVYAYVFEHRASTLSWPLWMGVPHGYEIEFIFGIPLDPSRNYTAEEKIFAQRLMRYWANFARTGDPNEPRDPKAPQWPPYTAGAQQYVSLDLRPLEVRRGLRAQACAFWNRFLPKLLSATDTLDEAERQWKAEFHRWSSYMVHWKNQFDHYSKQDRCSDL

CC(=O)OCC(COC(C)=O)OC(C)=O [TRIACETIN]
Not Active: IC50 [1] | IC50 [2] | Ki [2] | IC50 [3] | IC50 [4] | IC50 [5] | IC50 [6] | IC50 [7]

TRANSPLATIN
Not Active: IC50 [1] | Ki [1] | IC50 [2] | Ki [2] | IC50 [3] | Ki [3] | IC50 [4] | Ki [4] | IC50 [5] | Ki [5] | IC50 [6] | Ki [6] | IC50 [7] | Ki [7]

ZIRCONIUM(IV) CHLORIDE
Not Active: IC50 [1] | Ki [1] | IC50 [2] | Ki [2] | IC50 [3] | Ki [3] | IC50 [4] | Ki [4] | IC50 [5] | Ki [5] | IC50 [6] | Ki [6] | IC50 [7] | Ki [7]
